From patent US9561228B2 (Celgene Avilomics Research, Inc., priority 2013, dated 2017) come the findings set out here.

Some results are limits rather than exact numbers.

Assay [1] concerns ERK1/2 phosphorylation of p90RSK in HT29 cells. In words: pRSK MSD Assay in HT29 cells. The format is cell-based. To be noted: Homo sapiens, HT-29, read-out: ERK1/ERK2 PRSK MSD HT29 EC50. The essentials:
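Serum-starved HT29 cells (0.1% FBS overnight) treated with test compound for 120 min at 37° C, then lysed with protease and phosphatase inhibitors. Phospho-p90RSK quantified by MSD sandwich immunoassay: RSK capture antibody, phospho-RSK detection antibody plus Sulfo-tagged antibody, electrochemiluminescence read.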

The subject of assay [2] is ERK1/2 phosphorylation of p90RSK in HCT116 cells. In words: Detection of total and phospho-RSK by MSD ELISA (HCT116). The format is cell-based. The following applies: Homo sapiens, HCT-116, read-out: ERK1/ERK2 PRSK HCT116 EC50. The essentials:
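HCT116 cells treated with compound in RPMI/10% FBS for 2 h at 37° C, then lysed. Phospho-RSK (Ser380) and total RSK in lysates measured by MSD sandwich electrochemiluminescence ELISA as a readout of ERK1/2 activity.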
For orientation: In an ELISA, binding on a coated surface is turned into a signal by an enzyme label.

With `C=CC(=O)Nc1cc(OCCN2CCN(C(C)=O)CC2)ccc1Nc1nc(Nc2cc(OC)ncc2C)ncc1C(F)(F)F` [Compound I-416, N-(5-(2-(4-acetylpiperazin-1-yl)ethoxy)-2-((2-((2-methoxy-5-methylpyridin-4-yl)amino)-5-(trifluoromethyl)pyrimidin-4-yl)amino)phenyl)acrylamide], the EC50 in assay [1] and in assay [2] was 101 to 500 nM in each case.
For the molecule `C=CC(=O)Nc1cc(CN2CCN(C)CC2)ccc1Nc1nc(Nc2nc(OC)ncc2C)ncc1C(F)(F)F` [Compound I-394, N-(2-((2-((2-methoxy-5-methylpyrimidin-4-yl)amino)-5-(trifluoromethyl)pyrimidin-4-yl)amino)-5-((4-methylpiperazin-1-yl)methyl)phenyl)acrylamide], the EC50 in assay [1] and in assay [2] was 501 to 999 nM throughout.
In the case of `C=CC(=O)Nc1cc(OCC(=O)N2CCN(C(C)=O)CC2)ccc1Nc1nc(Nc2cc(OC)ncc2OC)ncc1C(F)(F)F` [Compound I-415, N-(5-(2-(4-acetylpiperazin-1-yl)-2-oxoethoxy)-2-((2-((2,5-dimethoxypyridin-4-yl)amino)-5-(trifluoromethyl)pyrimidin-4-yl)amino)phenyl)acrylamide], the EC50 is 501 to 999 nM in assay [1] and 101 to 500 nM in assay [2].
Taken in the same sequence, the figures for `C=CC(=O)Nc1cc(C)c(F)cc1Nc1nc(Nc2cc(OC)ncc2C)ncc1C(F)(F)F` [Compound I-366, N-(4-fluoro-2-((2-((2-methoxy-5-methylpyridin-4-yl)amino)-5-(trifluoromethyl)pyrimidin-4-yl)amino)-5-methylphenyl)acrylamide] were greater than 1000 nM and greater than 1000 nM.
Taken in the same sequence, the figures for `C=CC(=O)Nc1cc(O[C@@H](C)C(=O)N2CCN(S(C)(=O)=O)CC2)ccc1Nc1nc(Nc2cc(OC)ncc2C)ncc1C(F)(F)F` [Compound I-426, (S)—N-(2-((2-((2-methoxy-5-methylpyridin-4-yl)amino)-5-(trifluoromethyl)pyrimidin-4-yl)amino)-5-((1-(4-(methylsulfonyl)piperazin-1-yl)-1-oxopropan-2-yl)oxy)phenyl)acrylamide] were less than 100 nM and 101 to 500 nM.
Taken in the same sequence, the figures for `C=CC(=O)Nc1cc(C)ccc1Nc1nc(Nc2cc(OC)ncc2CC)ncc1C(F)(F)F` [Compound I-408, N-(2-((2-((5-ethyl-2-methoxypyridin-4-yl)amino)-5-(trifluoromethyl)pyrimidin-4-yl)amino)-5-methylphenyl)acrylamide] were 101 to 500 nM and 501 to 999 nM.
In the case of `C=CC(=O)Nc1cc(O[C@@H](C)C(N)=O)ccc1Nc1nc(Nc2cc(OC)ncc2C)ncc1C(F)(F)F` [Compound I-412, (S)—N-(5-((1-amino-1-oxopropan-2-yl)oxy)-2-((2-((2-methoxy-5-methylpyridin-4-yl)amino)-5-(trifluoromethyl)pyrimidin-4-yl)amino)phenyl)acrylamide], the EC50 in assay [1] is greater than 1000 nM; in assay [2], 101 to 500 nM.
Consider `C=CC(=O)Nc1cc(O[C@H](C)C(N)=O)ccc1Nc1nc(Nc2cc(OC)ncc2C)ncc1C(F)(F)F` [Compound I-413, (R)—N-(5-((1-amino-1-oxopropan-2-yl)oxy)-2-((2-((2-methoxy-5-methylpyridin-4-yl)amino)-5-(trifluoromethyl)pyrimidin-4-yl)amino)phenyl)acrylamide], for which the EC50 in assay [1] and in assay [2] was less than 100 nM each time.
With `C=CC(=O)Nc1cc(O[C@H](C)C(=O)N2CCN(S(C)(=O)=O)CC2)ccc1Nc1nc(Nc2cc(OC)ncc2C)ncc1C(F)(F)F` [Compound I-410, (R)—N-(2-((2-((2-methoxy-5-methylpyridin-4-yl)amino)-5-(trifluoromethyl)pyrimidin-4-yl)amino)-5-((1-(4-(methylsulfonyl)piperazin-1-yl)-1-oxopropan-2-yl)oxy)phenyl)acrylamide], the EC50 in assay [1] and in assay [2] was 101 to 500 nM each time.
Take `C=CC(=O)Nc1cc(CN2CCN(S(C)(=O)=O)CC2)ccc1Nc1nc(Nc2nc(OC)ncc2C)ncc1C(F)(F)F` [Compound I-383, N-(2-((2-((2-methoxy-5-methylpyrimidin-4-yl)amino)-5-(trifluoromethyl)pyrimidin-4-yl)amino)-5-((4-(methylsulfonyl)piperazin-1-yl)methyl)phenyl)acrylamide]: the results for the EC50 in assay [1] and in assay [2] were less than 100 nM and 101 to 500 nM, respectively.
Take `C=CC(=O)Nc1cc(CN2CCN(C(C)=O)C[C@H]2C)ccc1Nc1nc(Nc2cc(OC)ncc2C)ncc1C(F)(F)F` [Compound I-422, (R)—N-(5-((4-acetyl-2-methylpiperazin-1-yl)methyl)-2-((2-((2-methoxy-5-methylpyridin-4-yl)amino)-5-(trifluoromethyl)pyrimidin-4-yl)amino)phenyl)acrylamide]: the EC50 is 101 to 500 nM in assay [1] and less than 100 nM in assay [2].
Taken in the same sequence, the figures for `C=CC(=O)Nc1cc(C)ccc1Nc1nc(NC2CCC(=O)NC2)ncc1C(F)(F)F` (racemic) [Compound I-368, Rac-N-(5-methyl-2-((2-((6-oxopiperidin-3-yl)amino)-5-(trifluoromethyl)pyrimidin-4-yl)amino)phenyl)acrylamide] were 501 to 999 nM and 101 to 500 nM.
`C=CC(=O)Nc1cc(CN2CCN(C(=O)c3ccccn3)CC2)ccc1Nc1nc(Nc2cc(OC)ncc2C)ncc1C(F)(F)F` [Compound I-388, N-(2-((2-((2-methoxy-5-methylpyridin-4-yl)amino)-5-(trifluoromethyl)pyrimidin-4-yl)amino)-5-((4-picolinoylpiperazin-1-yl)methyl)phenyl)acrylamide]: the EC50 in assay [1] and in assay [2] was less than 100 nM throughout.
Consider `C=CC(=O)Nc1cc(C)ccc1Nc1nc(Nc2cc(C(F)(F)F)nn2C)ncc1C(F)(F)F` [Compound I-419, N-(5-methyl-2-((2-((1-methyl-3-(trifluoromethyl)-1H-pyrazol-5-yl)amino)-5-(trifluoromethyl)pyrimidin-4-yl)amino)phenyl)acrylamide], for which the EC50 in assay [1] and in assay [2] was greater than 1000 nM in each case.
As to `C#CC(=O)Nc1cc(C)ccc1Nc1nc(Nc2cc(OC)ncc2C)ncc1C(F)(F)F` [Compound I-345, N-(2-((2-((2-methoxy-5-methylpyridin-4-yl)amino)-5-(trifluoromethyl)pyrimidin-4-yl)amino)-5-methylphenyl)propiolamide], the EC50 in assay [1] and in assay [2] was greater than 1000 nM each time.
With `C=CC(=O)Nc1cc(C)ccc1Nc1nc(Nc2cc(OC)ncc2Cl)ncc1C(F)(F)F` [Compound I-351, N-(2-((2-((5-chloro-2-methoxypyridin-4-yl)amino)-5-(trifluoromethyl)pyrimidin-4-yl)amino)-5-methylphenyl)acrylamide], the EC50 in assay [1] was 101 to 500 nM; in assay [2], 501 to 999 nM.
Taken in the same sequence, the figures for `C=CC(=O)Nc1c(Nc2nc(Nc3cc(OC)ncc3C)ncc2OC)cccc1OCc1nccs1` [Compound I-411, N-(2-((5-methoxy-2-((2-methoxy-5-methylpyridin-4-yl)amino)pyrimidin-4-yl)amino)-6-(thiazol-2-ylmethoxy)phenyl)acrylamide] were greater than 1000 nM and greater than 1000 nM.
